Data: the NIST ThermoML archive (doi:10.1021/acs.jced.7b00650)

Conditions: Liquid; for viscosity: Capillary tube (Ostwald / Ubbelohde) method; for mass density: Vibrating tube method

CCCCCCCCC [nonane]
Conditions | mass density [kg/m3] | viscosity [mPa·s]
293.21 K, 1993 kPa | 719.36 | 0.7109
293.21 K, 3991 kPa | 721.16 | 0.7266
293.21 K, 5993 kPa | 722.88 | 0.7426
293.21 K, 7996 kPa | 724.42 | 0.7587
293.21 K, 10001 kPa | 725.92 | 0.775
293.21 K, 13001 kPa | 728 | 0.8
293.21 K, 19004 kPa | 732.11 | 0.8517
293.21 K, 22005 kPa | 734.14 | 0.8782
293.21 K, 24997 kPa | 736.13 | 0.9052
293.21 K, 27997 kPa | 738.31 | 0.9329
293.21 K, 29995 kPa | 739.58 | 0.9516
293.22 K, 16000 kPa | 730.02 | 0.8254
313.1 K, 19007 kPa | 718.18 | 0.6634
313.1 K, 22007 kPa | 720.52 | 0.6827
313.1 K, 25009 kPa | 722.7 | 0.7023
313.1 K, 28007 kPa | 724.82 | 0.7222
313.1 K, 30010 kPa | 726.21 | 0.7357
313.11 K, 2000 kPa | 704.08 | 0.559
313.11 K, 4007 kPa | 705.88 | 0.5709
313.11 K, 6006 kPa | 707.62 | 0.5829
313.11 K, 8004 kPa | 709.24 | 0.595
313.11 K, 10007 kPa | 710.92 | 0.6072
313.11 K, 13003 kPa | 713.28 | 0.6256
313.11 K, 16007 kPa | 715.76 | 0.6444
333 K, 2014 kPa | 688.53 | 0.4535
333 K, 3990 kPa | 690.6 | 0.4631
333 K, 5995 kPa | 692.58 | 0.4727
333.01 K, 8001 kPa | 694.51 | 0.4824
333.01 K, 10007 kPa | 696.11 | 0.4921
333.01 K, 13004 kPa | 698.84 | 0.5067
333.01 K, 16002 kPa | 701.48 | 0.5215
333.01 K, 19006 kPa | 704.03 | 0.5364
333.01 K, 22003 kPa | 706.5 | 0.5515
333.01 K, 25006 kPa | 708.9 | 0.5667
333.01 K, 28003 kPa | 711.23 | 0.5821
333.01 K, 30012 kPa | 712.74 | 0.5925
353.12 K, 2004 kPa | 672.27 | 0.3733
353.12 K, 3995 kPa | 674.59 | 0.3814
353.12 K, 6000 kPa | 676.83 | 0.3894
353.12 K, 8005 kPa | 679.1 | 0.3975
353.12 K, 10010 kPa | 681.31 | 0.4056
353.12 K, 13002 kPa | 684.37 | 0.4178
353.12 K, 16003 kPa | 687.3 | 0.43
353.12 K, 18999 kPa | 689.99 | 0.4422
353.12 K, 22002 kPa | 692.72 | 0.4546
353.12 K, 25004 kPa | 695.35 | 0.467
353.12 K, 28007 kPa | 697.9 | 0.4795
353.12 K, 30003 kPa | 699.56 | 0.4879

CCCCCCCC [octane]
Conditions | mass density [kg/m3] | viscosity [mPa·s]
293.21 K, 1996 kPa | 703.76 | 0.5512
293.21 K, 8004 kPa | 709.25 | 0.5874
293.21 K, 13010 kPa | 713.21 | 0.6183
293.21 K, 30002 kPa | 725.54 | 0.7285
293.22 K, 3994 kPa | 705.71 | 0.5631
293.22 K, 6001 kPa | 707.57 | 0.5752
293.22 K, 10009 kPa | 710.88 | 0.5997
293.22 K, 16009 kPa | 715.43 | 0.6371
293.22 K, 19011 kPa | 717.57 | 0.6566
293.22 K, 22012 kPa | 719.76 | 0.6759
293.22 K, 25004 kPa | 721.88 | 0.6954
293.22 K, 28004 kPa | 724.19 | 0.7152
313.1 K, 5999 kPa | 692.07 | 0.4593
313.1 K, 19006 kPa | 703.5 | 0.5234
313.1 K, 21998 kPa | 706.05 | 0.5385
313.1 K, 25000 kPa | 708.39 | 0.5539
313.1 K, 27998 kPa | 710.67 | 0.5694
313.1 K, 30001 kPa | 712.15 | 0.5798
313.11 K, 2007 kPa | 688.27 | 0.4402
313.11 K, 4000 kPa | 690.26 | 0.4497
313.11 K, 7997 kPa | 693.85 | 0.469
313.11 K, 10009 kPa | 695.59 | 0.4788
313.11 K, 13005 kPa | 698.26 | 0.4935
313.11 K, 16009 kPa | 700.84 | 0.5083
333 K, 22003 kPa | 691.91 | 0.4414
333.01 K, 2005 kPa | 672.19 | 0.3601
333.01 K, 3993 kPa | 674.49 | 0.3681
333.01 K, 5998 kPa | 676.69 | 0.3761
333.01 K, 8014 kPa | 678.82 | 0.3841
333.01 K, 10007 kPa | 680.8 | 0.3921
333.01 K, 13004 kPa | 683.6 | 0.4043
333.01 K, 16002 kPa | 686.47 | 0.4166
333.01 K, 19006 kPa | 689.24 | 0.4289
333.01 K, 25006 kPa | 694.49 | 0.4539
333.01 K, 28003 kPa | 696.99 | 0.4666
333.01 K, 30012 kPa | 698.61 | 0.4751
353.12 K, 2008 kPa | 655.38 | 0.2974
353.12 K, 3999 kPa | 657.99 | 0.3043
353.12 K, 6000 kPa | 660.5 | 0.3112
353.12 K, 8001 kPa | 663.11 | 0.3181
353.12 K, 10006 kPa | 665.45 | 0.325
353.12 K, 19000 kPa | 674.99 | 0.3563
353.12 K, 22003 kPa | 677.96 | 0.3669
353.12 K, 25005 kPa | 680.81 | 0.3775
353.12 K, 28008 kPa | 683.56 | 0.3882
353.12 K, 30004 kPa | 685.34 | 0.3954
353.13 K, 13003 kPa | 668.83 | 0.3354
353.13 K, 16004 kPa | 672.05 | 0.3458
